Results: a melting point compilation (Tetko et al.; mined from patent text by program, amines drawn as free bases though some values may be those of a salt)

| SMILES | melting point [°C] |
| --- | --- |
| COc1cc(C(F)(F)F)nc(NC(=O)Oc2ccccc2)n1 | 85 to 88 |
| O=C1NC(=S)SC1=Cc1ccccc1C(=O)O | 276 to 278 |
| COc1ncc(C)cc1Nc1cc(C#N)c2c(c1)[C@@H]1CNCC[C@@H]1N2C | 76 to 80 |
| CC1CC(=O)NN=C1c1ccc(OCCCN)cc1 (stereo unspecified) | 136 to 138 |
| CCON=C(C)c1ccc2c(c1)ncn2-c1cccc(C2=CCCN(C)C2)c1 | 138 to 143 |
| Cc1cccc(C)c1NC(=O)N=C1CCCCCN1C | 128 to 130 |
| O=C1N=NC(CO)=C1c1ccccc1 | 165 to 168 |
| C=CCN(C1CCN(C)CC1)S(=O)(=O)c1ccc(Nc2nccc(Nc3ccc(F)cc3)n2)cc1 | 167 |
| CCNC(=O)c1c(Cl)cccc1[Si](C)(C)C1CC2CCC1C2 (stereo unspecified) | 124 to 125 |
| Cc1nc2cnccc2o1 | 56 to 58 |
| Nc1ncnc2c1ncn2Cc1oc2ccccc2c(=O)c1-c1ccccc1 | 173 to 175 |
| CNC(=O)Nc1cc(C(C)(C)C)c2c(c1)C(C)(C)CO2 | 193 to 194 |
| CCOC(=O)c1c(C)cc2nc(CO)n(-c3ccccc3C)c(=O)c2c1C | 130 to 132 |
| CN(c1cccc2cc(C3=NCC(CC(=O)O)S3)[nH]c12)S(=O)(=O)c1cccs1 (stereo unspecified) | 232 to 234 |
| CCSc1ccc(-c2coc3ccc(-c4nnc(C)o4)cc23)cc1F | 115 to 116 |
| COc1cc2ncnc(N3CCN(C(=S)Nc4ccc(C(F)(F)F)cc4)CC3)c2cc1OC | 117 to 119 |
| CCSc1ccc(-c2c(Cl)ncn2-c2ccc(S(C)(=O)=O)cc2)cc1 | 181 to 185 |
| CC(Oc1ccc(Cl)cc1)c1nnc(N2C(=O)N(C)CC2O)s1 (stereo unspecified) | 147 to 149 |
| CCOC(=O)c1c(Cn2cnnc2)nc2cc(OC)c(OC)cc2c1-c1ccc(OC(C)C)c(OC)c1 | 178 to 179 |
| FC(F)(F)C=NNc1c(Cl)cc(C(F)(F)F)cc1Cl | 45 to 46 |
| COc1ccc(-c2ccc(-c3cc(NC(Cc4ccccc4)C(=O)O)ncn3)cc2)cc1 (stereo unspecified) | 123 to 125 |
| N#Cc1c(SC(F)(F)F)c(N)n(-c2ccc(C(F)(F)F)cc2)c1Br | 152 |
| Cc1nnc2c(-c3cccc(C(F)(F)F)c3)cncn12 | 157 to 159 |

| SMILES | melting point [°C] |
| --- | --- |
| CC(C)Oc1nc(C#N)c(C#N)nc1Cl | 48.5 to 50 |
| Cc1oc(-c2cccc(C#N)c2)nc1CCl | 100 to 101 |
| Fc1cc(F)cc(Oc2ccc(OCc3ccc(Cl)cc3)c(Cl)c2)c1 | 95.3 |
| COCCOc1cc(NC(=O)OC(C)(C)C)c(N)cc1C#Cc1ccccc1 | 105 to 107 |
| CC1(C)C(=O)Oc2ccc3cc(C#N)c(C(n4cncn4)n4cncn4)cc3c21 | 240 to 242 |
| Nc1ccc2c(c1)SC1=NCCCN12 | 186 |
| O=C1C(c2ccccc2)=C(c2ccccc2)C(=O)N1Cc1ccccc1F | 113 to 114 |
| CS(=O)(=O)Nc1ccc(OCCCCl)cc1 | 120 to 122 |
| NC1([C@@H]2CCN(c3cc4c(cc3F)c(=O)c(C(=O)O)cn4[C@@H]3C[C@@H]3F)C2)CC1 | 240 to 242 |
| NC(=O)C1(CC23CC4CC(CC(C4)C2)C3)C=C(O)C=CC1Cl (stereo unspecified) | 263 to 264 |
| CCOC(=O)C1CCN(C(=O)c2[nH]c(C)c(-c3nc4ccc(C(=O)c5ccccc5)cc4[nH]3)c2C)CC1 | 272 to 274 |
| CC(C)(C)OC(=O)NCc1ccc(CNC(=O)[C@@H](CCCNC(N)=N[N+](=O)[O-])NC(=O)C(c2ccccc2)c2ccccc2)cc1 | 198 |
| COC(=O)C1=C(C)NC(C(OC)OC)=C(C(=O)OC)C1c1cccc2c(=O)c(C)c(-c3ccccc3)oc12 (stereo unspecified) | 166 to 168 |
| O=C(NCCO)c1cnccn1 | 125 |
| CC1=NC=C(c2ccc3c(c2)NC(=O)CO3)C(c2ccccc2)S1 (stereo unspecified) | 187 to 189 |
| COc1cc(C(=O)OCc2ccc3nc(N)nc(N)c3c2)cc(OC)c1OC | 223 to 227 |
| Cc1cc2c(c(C)c1O)OC[C@@H](N1CCC(O)(c3ccc(F)cc3)CC1)[C@H]2O (relative stereo) | 226 to 227 |
| O=C(Cn1cnc2ccccc21)Nc1ccc(-n2nc(C(F)(F)F)cc2C2CC2)cc1 | 178 to 184 |
| c1ccc(CN2c3ccccc3-c3noc4c3C2CCC4)cc1 (stereo unspecified) | 162 to 164 |
| Cc1cc2c(cc1-c1cccc(C#CC(=O)O)c1)C(C)(C)CCC2(C)C | 180 to 181 |
| FC(F)(F)c1ccc2nccc(N3CCN(C(=S)NCc4ccccc4)CC3)c2c1 | 158 to 159 |
| COc1cccc2c1-c1c(ccn1CCNC(C)=O)CC2 | 132 to 133 |
| CCCn1c(COCC)nc2c(N)nc3cc(OCCN4CCOCC4)ccc3c21 | 191 to 192 |

Next, values leading:

| melting point [°C] | SMILES |
| --- | --- |
| 75.5 to 76 | CSC(=C[N+](=O)[O-])NCCCCc1nccs1 |
| 39 to 40 | COC(=O)CCc1cc(F)ccc1C(=O)CCCNC(C)=O |
| 216 to 220 | CC(C)OC(=O)C1=C2SCC(=CC(=O)Sc3ccccc3)N2CC1 |
| 165 to 167 | Oc1ccc(CCn2ccn(C3CCc4ccccc4C3)c2=S)cc1O (stereo unspecified) |
| 131 to 133 | CNC(=NS(C)(=O)=O)NCCCCCc1nc(N)nc(NC(N)=NCC(F)(F)F)n1 |
| 154 | CC(C)CNC(=O)CN=Cc1ccccc1F |
| 121 to 123 | COC(=O)c1sc2cc(CO)ccc2c1C |
| 192 to 194 | COC(=O)c1cncc(-c2ccc(OC)c([N+](=O)[O-])c2)c1 |
| 91 to 95 | CS(=O)(=O)c1ccc(C(CC2CCCC2)C(=O)Nc2ccncn2)cc1[N+](=O)[O-] (stereo unspecified) |
| 148 to 149 | COC(=O)C1=C(CF)NC(C)=C(C(=O)OC(C)C)C1c1cccc(Cl)c1Cl (stereo unspecified) |
| 119 to 120 | Cc1cc(C(=O)NCO)ncc1C(c1c(F)ccc(F)c1F)S(=O)(=O)c1ccc(F)c(F)c1 (stereo unspecified) |
| 229 to 234 | CC(C)(C)NS(=O)(=O)c1ccc2c(c1)C=C(C(=O)O)C(C(F)(F)F)O2 (stereo unspecified) |
| 195 to 200 | CC(NC(=O)Cc1cc(F)cc(F)c1)C(=O)NC1C(=O)NC(F)c2ccccc21 (stereo unspecified) |
| 92 to 92.5 | CSC(=C[N+](=O)[O-])NCCCBr |
| 113 to 115 | CC(C)NC(=O)CCCCc1cc(O)c(O)c([N+](=O)[O-])c1 |
| 105 to 106 | CC(NC(=O)N(C)O)c1ccc(OCc2ccccc2)cc1 (stereo unspecified) |
| 205 to 208 | CNc1c(F)cc2c(=O)c(C(=O)O)cn(-c3nc(N)c(F)cc3F)c2c1Br |
| 188 to 190 | CCOC(=O)c1cn(NC=O)c2c(OCc3ccccc3)c(F)c(F)cc2c1=O |
| 273 | CNc1c(F)cc2c(=O)c(C(=O)O)cn(-c3cc(N)c(F)cc3Cl)c2c1Cl |
| 109 to 110 | COCCCNC(=O)c1ccc(C(=O)N2CCN(c3ncccc3NCC(C)C)CC2)nc1 |
| 95 to 96 | COC(=O)c1cccc(CNC(=O)OC(C)(C)C)c1O |
| 143 to 144 | CCOC(=O)c1cn(C)c2cc(C)sc2c1=O |
| 206 to 208 | CCC(=O)Nc1c(C(=O)c2cccc(Cl)c2)[nH]c2ccc(Cl)cc12 |
| 171 to 173 | CCCNC(=O)C1(CCCCc2ccc(NC(=O)c3ccccc3)cc2)c2ccccc2-c2ccccc21 |
| 190 to 192 | CC(C)NC(=O)Nc1ccc(Cl)cc1C(=O)c1ccccc1 |
